We go through 28 compounds from the Kinase Knowledgebase extract (Sharma et al. 2016).

Structures are written as SMILES.

The assay addresses CDK2 (UniProt P24941). Kind of assay: Enzyme Assay.
The IC50 is the concentration that gives 50% inhibition. Read a low IC50 as greater potency. Consider `O=C(Nc1n[nH]c2c1CCC2)c1cccc(F)c1`, for which the IC50 is 5 µM.
`CSc1ccc(CC(=O)Nc2n[nH]c3c2CCC3)cc1` registered an IC50 of 1.5 µM. Compared with the last compound, the IC50 is about 3.3-fold lower.
To `O=C(Cc1ccc(Br)cc1)Nc1n[nH]c2c1CCC2` belongs 1.1 µM.
The same measure for `O=C(Cc1cccc(Br)c1)Nc1n[nH]c2c1CCC2`: 1.5 µM; for `O=C(Nc1n[nH]c2c1CCC2)C1CC1`: 4 µM.
For the compound `COc1ccc(OC)c(CC(=O)Nc2n[nH]c3c2CCC3)c1`, the IC50 was 5.2 µM.
To `O=C(Cc1cccc(-c2ccccc2)c1)Nc1n[nH]c2c1CCC2` belongs 8 µM.
The same measure for `O=C(Cc1ccc(-c2cccc(F)c2)cc1)Nc1n[nH]c2c1CCC2`: 7 µM; for `COc1cccc(CC(=O)Nc2n[nH]c3c2CCC3)c1`: 7.6 µM; for `CC(C)(C)c1ccc(CC(=O)Nc2n[nH]c3c2CCC3)cc1`: 1 µM.
The same measure for `O=C(Cc1ccc(F)cc1)Nc1n[nH]c2c1CCC2`: 3 µM; for `O=C(Cc1ccc(-c2ccccc2F)cc1)Nc1n[nH]c2c1CCC2`: 7 µM; for `CC(=O)c1cccc(-c2ccc(CC(=O)Nc3n[nH]c4c3CCC4)cc2)c1`: 4.3 µM.
In turn, `O=C(Cc1ccc(-c2ccccc2)cc1)Nc1n[nH]c2c1CCC2` had an IC50 of 1 µM.
On to `COc1ccc(CC(=O)Nc2n[nH]c3c2CCC3)cc1`, for which the IC50 came to 0.7 µM.
With `COc1ccc(C(=O)Nc2n[nH]c3c2CCC3)cc1`, the IC50 came to 6 µM.
To `CC(=O)c1ccc(-c2ccc(CC(=O)Nc3n[nH]c4c3CCC4)cc2)cc1` belongs 6.5 µM; to `O=C(Cc1ccccc1)Nc1n[nH]c2c1CCC2`, 1.5 µM; to `COc1ccccc1-c1ccc(CC(=O)Nc2n[nH]c3c2CCC3)cc1`, < 10 µM.
Turning to `COc1cccc(-c2ccc(CC(=O)Nc3n[nH]c4c3CCC4)cc2)c1`, the IC50 was < 10 µM.
Take `COc1ccc(-c2ccc(CC(=O)Nc3n[nH]c4c3CCC4)cc2)cc1`: the IC50 is < 10 µM.
The same measure for `O=C(Cc1ccc(-c2ccc(F)cc2)cc1)Nc1n[nH]c2c1CCC2`: < 10 µM; for `O=C(Nc1n[nH]c2c1CCC2)c1ccccc1`: 7 µM.
For the compound `O=C(Nc1n[nH]c2c1CCC2)c1cccs1`, the IC50 stood at 4 µM.
As to `O=C(Cc1cccs1)Nc1n[nH]c2c1CCC2`, the IC50 came out at 4 µM.
In turn, `O=C(CCc1ccccc1)Nc1n[nH]c2c1CCC2` registered an IC50 of 3 µM. This IC50 and that of the compound before are within 1.5-fold of each other.
For the compound `O=C(Nc1n[nH]c2c1CCC2)c1ccc2c(c1)OCO2`, the half-inhibitory concentration (IC50) was 4 µM.
The same measure for `O=C(Cc1ccc(I)cc1)Nc1n[nH]c2c1CCC2`: 0.8 µM.
